From patent US11078198B2 (BRISTOL-MYERS SQUIBB COMPANY, priority 2017, dated 2021)

Target: T1, human FXR (Homo sapiens, UniProt Q96RI1)
T1 construct: expressed in transfected cells; host or cells: HEK293 cells stably carrying a 5xGal4-response-element firefly luciferase reporter, transiently transfected with pcDNA3.1-Gal4-FXR
T1 sequence (Q96RI1 262-486 limits assumed): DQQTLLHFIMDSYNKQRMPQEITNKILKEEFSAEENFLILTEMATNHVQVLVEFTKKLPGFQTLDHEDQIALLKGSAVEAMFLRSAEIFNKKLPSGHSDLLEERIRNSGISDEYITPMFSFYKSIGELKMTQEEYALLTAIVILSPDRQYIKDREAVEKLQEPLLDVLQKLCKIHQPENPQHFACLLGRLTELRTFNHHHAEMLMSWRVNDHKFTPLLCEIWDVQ
Experiment: transient human FXR/Gal4-luciferase reporter assay
Assay type: cell-based
Conditions: Gal4-hFXR transfected HEK293 reporter cells; relative to 8 μM GW-4064
In short: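 HEK293 cells stably carrying a 5×Gal4-response-element firefly luciferase reporter, transiently transfected overnight with a CMV-driven Gal4 DNA-binding domain/human FXR ligand-binding domain fusion.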

| SMILES | EC50 [nM] |
| --- | --- |
| O=C(O)c1ccc(N2CCC3(C=C(c4c(-c5c(Cl)cncc5Cl)noc4C4CC4)C3)CC2)nc1 [Example 66, 6-(2-(5-Cyclopropyl-3-(3,5-dichloropyridin-4-yl)isoxazol-4-yl)-7-azaspiro[3.5]non-1-en-7-yl)nicotinic acid] | 342 |
| Cc1cc(C(=O)O)nc2ccc(N3CCC4(C=C(c5c(-c6c(Cl)cncc6Cl)noc5C5CC5)C4)CC3)cc12 [Example 87, 6-(2-(5-Cyclopropyl-3-(3,5-dichloropyridin-4-yl)isoxazol-4-yl)-7-azaspiro[3.5]non-1-en-7-yl)-4-methylquinoline-2-carboxylic acid] | 76 |
| O=C(O)c1cccc(N2CCC3(CC2)COC(c2c(-c4ccccc4OC(F)(F)F)noc2C2CC2)O3)n1 (stereo not shown) [Example 44, 6-(2-(5-cyclopropyl-3-(2-(trifluoromethoxy)phenyl)isoxazol-4-yl)-1,3-dioxa-8-azaspiro[4.5]decan-8-yl)picolinic acid] | 5000 |
| O=C(O)c1cc2ccc(N3CCC4(C=C(c5c(-c6c(Cl)cncc6Cl)noc5C5CC5)C4)CC3)cc2nn1 [Example 55, 7-(2-(5-Cyclopropyl-3-(3,5-dichloropyridin-4-yl)isoxazol-4-yl)-7-azaspiro[3.5]non-1-en-7-yl)cinnoline-3-carboxylic acid] | 191 |
| O=C(O)c1ccc2nc(N3CCC4(C=C(c5c(-c6ccccc6C(F)(F)F)noc5C5CC5)C4)CC3)cnc2c1 [Example 101, 2-(2-(5-Cyclopropyl-3-(2-(trifluoromethyl)phenyl)isoxazol-4-yl)-7-azaspiro[3.5]non-1-en-7-yl)quinoxaline-6-carboxylic acid] | 17 |
| CC(C)Oc1cc(C(=O)O)nc2ccc(N3CCC4(C=C(c5c(-c6c(Cl)cc(F)cc6Cl)noc5C5CC5)C4)CC3)cc12 [Example 110, 6-(2-(5-Cyclopropyl-3-(2,6-dichloro-4-fluorophenyl)isoxazol-4-yl)-7-azaspiro[3.5]non-1-en-7-yl)-4-isopropoxyquinoline-2-carboxylic acid] | 37 |
| Cc1nc(N2CCC3(C=C(c4c(-c5c(Cl)cccc5Cl)noc4C4CC4)C3)CC2)ccc1C(=O)O [Example 124, 6-(2-(5-Cyclopropyl-3-(2,6-dichlorophenyl)isoxazol-4-yl)-7-azaspiro[3.5]non-1-en-7-yl)-2-methylnicotinic acid] | 78 |
| O=C(O)c1cnc(N2CCC3(C=C(c4c(-c5c(Cl)cccc5Cl)noc4C4CC4)C3)CC2)cn1 [Example 19, 5-(2-(5-Cyclopropyl-3-(2,6-dichlorophenyl)isoxazol-4-yl)-7-azaspiro[3.5]non-1-en-7-yl) pyrazine-2-carboxylic acid] | 110 |
| O=C(O)c1cc(OC(F)F)c2cc(N3CCC4(C=C(c5c(-c6cnccc6C(F)(F)F)noc5C5CC5)C4)CC3)ccc2n1 [Example 75, 6-(2-(5-Cyclopropyl-3-(4-(trifluoromethyl)pyridin-3-yl)isoxazol-4-yl)-7-azaspiro[3.5]non-1-en-7-yl)-4-(difluoromethoxy)quinoline-2-carboxylic acid] | 35 |
| O=C(O)c1ccc(N2C3CCC2CC2(CC(c4c(-c5c(Cl)cccc5Cl)noc4C4CC4)C2)C3)nc1 (stereo not shown) [Example 16, 6-(3′-(5-Cyclopropyl-3-(2,6-dichlorophenyl)isoxazol-4-yl)-8-azaspiro[bicyclo[3.2.1]octane-3,1′-cyclobutan]-8-yl)nicotinic acid] | 646 |
| CC(C)(C)OC(=O)N1CCC2(CC1)COC(c1c(-c3c(Cl)cccc3Cl)noc1C1CC1)O2 (racemic) [(±)-tert-Butyl 2-(5-cyclopropyl-3-(2,6-dichlorophenyl)isoxazol-4-yl)-1,3-dioxa-8-azaspiro[4.5]decane-8-carboxylate] | 4800 |
| O=C(O)c1cc(OC(F)F)c2cc(N3CCC4(C=C(c5c(-c6ncccc6Cl)noc5C5CC5)C4)CC3)ccc2n1 [Example 78, 6-(2-(3-(3-Chloropyridin-2-yl)-5-cyclopropylisoxazol-4-yl)-7-azaspiro[3.5]non-1-en-7-yl)-4-(difluoromethoxy)quinoline-2-carboxylic acid] | 121 |
| O=C(O)c1cc(C(F)(F)F)c2cc(N3CCC4(C=C(c5c(-c6ccc(F)cc6Cl)noc5C5CC5)C4)CC3)ccc2n1 [Example 96, 6-(2-(3-(2-Chloro-4-fluorophenyl)-5-cyclopropylisoxazol-4-yl)-7-azaspiro[3.5]non-1-en-7-yl)-4-(trifluoromethyl)quinoline-2-carboxylic acid] | 869 |
| O=C(O)c1cc2ccc(N3CCC4(C=C(c5c(-c6cnccc6C(F)(F)F)noc5C5CC5)C4)CC3)cc2nn1 [Example 81, 7-(2-(5-Cyclopropyl-3-(4-(trifluoromethyl)pyridin-3-yl)isoxazol-4-yl)-7-azaspiro[3.5]non-1-en-7-yl)cinnoline-3-carboxylic acid] | 1540 |

Next, values leading:

| EC50 [nM] | SMILES |
| --- | --- |
| 2980 | Cn1nc(C(=O)O)c2ccc(N3CCC4(C=C(c5c(-c6ccccc6OC(F)(F)F)noc5C5CC5)C4)CC3)cc21 [Example 165, 6-(2-(5-Cyclopropyl-3-(2-(trifluoromethoxy)phenyl)isoxazol-4-yl)-7-azaspiro[3.5]non-1-en-7-yl)-1-methyl-1H-indazole-3-carboxylic acid] |
| 147 | O=C(O)c1cc(OCCO)c2cc(N3CCC4(C=C(c5c(-c6c(Cl)cncc6Cl)noc5C5CC5)C4)CC3)ccc2n1 [Example 142, 6-(2-(5-Cyclopropyl-3-(3,5-dichloropyridin-4-yl)isoxazol-4-yl)-7-azaspiro[3.5]non-1-en-7-yl)-4-(2-hydroxyethoxy)quinoline-2-carboxylic acid] |
| 185 | COc1cc(C(=O)O)nc2ccc(N3CCC4(C=C(c5c(-c6cnccc6C(F)(F)F)noc5C5CC5)C4)CC3)cc12 [Example 146, 6-(2-(5-Cyclopropyl-3-(4-(trifluoromethyl)pyridin-3-yl)isoxazol-4-yl)-7-azaspiro[3.5]non-1-en-7-yl)-4-methoxyquinoline-2-carboxylic acid] |
| 48 | O=C(O)c1cc(F)c2nc(N3CCC4(C=C(c5c(C(F)F)cnn5-c5ccccc5C(F)(F)F)C4)CC3)sc2c1 [Example 213, 2-(2-(4-(Difluoromethyl)-1-(2-(trifluoromethyl)phenyl)-1H-pyrazol-5-yl)-7-azaspiro[3.5]non-1-en-7-yl)-4-fluorobenzo[d]thiazole-6-carboxylic acid] |
| 68 | CCNC(=O)c1cc(F)c2nc(N3CCC4(C=C(c5c(-c6c(Cl)cncc6Cl)noc5C5CC5)C4)CC3)sc2c1 [Example 200, 2-(2-(5-Cyclopropyl-3-(3,5-dichloropyridin-4-yl)isoxazol-4-yl)-7-azaspiro[3.5]non-1-en-7-yl)-N-ethyl-4-fluorobenzo[d]thiazole-6-carboxamide] |
| 554 | O=C(O)c1ccc2cc(N3CCC4(C=C(c5c(-c6cnccc6C(F)(F)F)noc5C5CC5)C4)CC3)ccc2n1 [Example 154, 6-(2-(5-Cyclopropyl-3-(4-(trifluoromethyl)pyridin-3-yl)isoxazol-4-yl)-7-azaspiro[3.5]non-1-en-7-yl)quinoline-2-carboxylic acid] |
| 48 | O=C(NS(=O)(=O)C1CC1)c1cc(OC(F)F)c2cc(N3CCC4(C=C(c5c(-c6ncccc6Cl)noc5C5CC5)C4)CC3)ccc2n1 [Example 189, 6-(2-(3-(3-Chloropyridin-2-yl)-5-cyclopropylisoxazol-4-yl)-7-azaspiro[3.5]non-1-en-7-yl)-N-(cyclopropylsulfonyl)-4-(difluoromethoxy)quinoline-2-carboxamide] |
| 1610 | O=C(O)c1cc2ccc(N3CCC4(C=C(c5c(-c6cnccc6C(F)(F)F)noc5C5CC5)C4)CC3)cc2cn1 [Example 160, 7-(2-(5-Cyclopropyl-3-(4-(trifluoromethyl)pyridin-3-yl)isoxazol-4-yl)-7-azaspiro[3.5]non-1-en-7-yl)isoquinoline-3-carboxylic acid] |
| 178 | O=C(NS(=O)(=O)C1CC1)c1ccc2cc(N3CCC4(C=C(c5c(-c6c(Cl)cccc6Cl)noc5C5CC5)C4)CC3)ccc2n1 [Example 193, 6-(2-(5-Cyclopropyl-3-(2,6-dichlorophenyl)isoxazol-4-yl)-7-azaspiro[3.5]non-1-en-7-yl)-N-(cyclopropylsulfonyl)quinoline-2-carboxamide] |
| 230 | O=C(O)c1cc(F)c2nc(N3CCC4(C=C(c5c(C(F)F)cnn5-c5ccccc5OC(F)(F)F)C4)CC3)sc2c1 [Example 217, 2-(2-(4-(Difluoromethyl)-1-(2-(trifluoromethoxy)phenyl)-1H-pyrazol-5-yl)-7-azaspiro[3.5]non-1-en-7-yl)-4-fluorobenzo[d]thiazole-6-carboxylic acid] |
| 156 | COc1cc(C(=O)O)nc2ccc(N3CCC4(C=C(c5c(-c6cccnc6C(F)(F)F)noc5C5CC5)C4)CC3)cc12 [Example 144, 6-(2-(5-Cyclopropyl-3-(2-(trifluoromethyl)pyridin-3-yl)isoxazol-4-yl)-7-azaspiro[3.5]non-1-en-7-yl)-4-methoxyquinoline-2-carboxylic acid] |
